Source: paper PMC11284788, “NN1213 – A Potent, Long-Acting, and Selective Analog of Human Amylin” (Journal of Medicinal Chemistry, 2024)
Read-outs that look alike come from different tables or passages of the source. Numbered stars: 1 amine (or outer) side, 2 acyl side, 3 side chain; on linkers, the order of the positions; unused ones are H or OH. Bridge positions count the residues as written; N and C are the ends. Side chains are listed from the residue outwards. Peptide text beside a SMILES is read from it. * marks the point of attachment. C20 diacid = O=C(O)CCCCCCCCCCCCCCCCCCC(=O)*; γGlu = O=C(O)[C@H](CCC(=O)[*:2])N[*:1]

Assays:
[1] = ThT assay: fibril formation propensity and peptide recovery; format: physicochemical; conditions: for ThT, pH 7.5 lag-time: 10 mM HEPES pH 7.5, 1 μM ThT; for recovery: residual dissolved peptide after 45 h of shaking, centrifugation and 0.22 μm filtration, HPLC, relative to amount before stress
Procedure, shortened: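 Peptides at 250 μM in 10 mM glycylglycine (pH 4.0) or HEPES (pH 7.5) with 1 μM ThT, shaken at 37 °C, 960 rpm, for 45 h; ThT fluorescence (ex 444/em 485 nm) read every 20 min. Lag time is the lowest of four replicates (>45 h if none); recovery is soluble peptide by HPLC after centrifugation/filtration, relative to pre-stress.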

hCTR [2] = molecular target: T1, hCTR (Homo sapiens, UniProt P30988); assay: scintillation proximity binding assay, hCTR membranes; set-up: expressed in transfected cells; host or cells: BHK tk-ts 13, transient (FuGENE 6); membranes for the SPA, whole cells for the species-specific assays
T1 sequence (P30988 25-474): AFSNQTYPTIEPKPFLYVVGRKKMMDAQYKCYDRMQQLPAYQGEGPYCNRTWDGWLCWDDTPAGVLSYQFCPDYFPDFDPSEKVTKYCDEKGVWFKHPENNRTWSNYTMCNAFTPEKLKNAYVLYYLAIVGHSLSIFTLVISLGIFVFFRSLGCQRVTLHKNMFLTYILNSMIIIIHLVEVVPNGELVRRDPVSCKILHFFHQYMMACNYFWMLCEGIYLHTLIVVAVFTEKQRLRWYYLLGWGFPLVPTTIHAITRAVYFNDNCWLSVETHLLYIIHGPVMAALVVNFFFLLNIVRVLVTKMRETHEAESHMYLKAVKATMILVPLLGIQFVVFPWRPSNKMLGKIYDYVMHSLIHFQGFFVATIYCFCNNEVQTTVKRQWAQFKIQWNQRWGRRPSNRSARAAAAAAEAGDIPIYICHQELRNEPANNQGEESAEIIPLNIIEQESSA
Method: The apparent binding affinities were determined using a scintillation proximity assay with beads from PerkinElmer and cell membranes containing the AMY3R or CTRs. […] Membranes were harvested and membranes were prepared and kept at −80 °C until use. The assay was performed in a 384-well Optiplate (PerkinElmer). Membranes were mixed with scintillation proximity assay beads in a 1:1 ratio. […] Samples were analyzed on a TopCounter (Packard). The IC50 values were calculated using GraphPad Prism. See Supporting Information S7: SAR Screening Assay Methods (Binding Assays (Human and Rat)) for more information.
Binding Assays (Human and Rat). Brief descriptions of the methods used to determine binding affinities for SAR analysis are described below. Curves and IC50 values were plotted and calculated in GraphPad Prism using nonlinear regression (one site binding competition analysis), with pIC50 values […]
values were used to calculate the binding affinity ratios in order to express the selectivity of compounds for the AMY3R versus the CTR.
CTR Binding Assay. The binding assay was performed using scintillation proximity assay (SPA) beads (RPNQ0001) from PerkinElmer and cell membranes containing either the hCTR or rCTR. BHK […]
Membranes were prepared in the following way: the cells were rinsed with PBS and incubated with Versene for approximately 5 min before harvesting. The cells were flushed with PBS and the cell-suspension was centrifuged for 5 min at 1000 rpm. Cells were homogenized (Ultra Turrax) in a buffer […]
containing 20 mM Na-HEPES and 0.1 mM EDTA (pH 7.4, buffer 2). The resulting pellet was re-suspended in buffer 2 and protein concentration was measured (BCA protein assay, Pierce). The homogenate was kept cold during the whole procedure. The membranes were stored at –80 °C until […]
The binding assay was performed in a 384-well Optiplate (PerkinElmer) in a total volume of 40 μL.
Membranes were mixed with SPA beads in a 1:1 ratio. […]
mg/well. Test compounds were dissolved in DMSO and further diluted in assay buffer (50 mM HEPES, pH 7.4, 1 mM CaCl2, 5 mM MgCl2, 0.1% ovalbumin, and 0.02% Tween-20).
Calcitonin (NEX422 PerkinElmer) was dissolved in assay buffer and added to the Optiplate at a final […]
prior to centrifugation (1500 rpm, 10 min). Samples were analyzed on TopCounter (Packard).

hCTR [3] = molecular target: T1, hCTR; assay: cAMP-responsive element luciferase reporter assay, human CTR; format: cell-based; conditions: luciferase (human receptor assay)
[4] = 250 μM peptide, 37 °C, 960 rpm, 45 h, lowest of four replicas, average of experiments
[5] = SPA, BHK cell membranes, 125I-Calcitonin 75 pM, 120 min 25 °C, read-out: hCTR IC50
[6] = BHK cells stably expressing hCTR and CRE-luciferase, 3 h, 37 °C, 10% FBS, read-out: hCTR EC50

Row | Compound | ThT, pH 7.5 lag-time [1, 4] [h] | recovery ([1]; pH 7.5) [%] | hCTR pIC50 (hCTR [2]; SPA binding assay, Tables S13 and S15) | IC50 (hCTR [2]; [5]) [nM] | ThT, pH 4.0 lag-time ([1]; 250 μM peptide, 10 mM glycylglycine pH 4.0, 1 μM ThT, 37 °C, 960 rpm, 45 h, lowest of four replicas, average of experiments) [h] | recovery ([1]; pH 4.0) [%] | hCTR pEC50 (hCTR [3]; Tables S12 and S14) | EC50 (hCTR [3]; [6]) [nM] | IC50 (hCTR [2]; SPA binding assay, Tables S13 and S15, read-out: hCTR pIC50 (converted)) [nM] | EC50 (hCTR [3]; Tables S12 and S14, read-out: hCTR pEC50 (converted)) [nM]
1 | CC[C@H](C)[C@H](NC(=O)[C@H](C)NC(=O)CNC(=O)[C@H](Cc1ccccc1)NC(=O)[C@H](CC(N)=O)NC(=O)[C@@H]1CCCN1C(=O)[C@H](CO)NC(=O)[C@H](CO)NC(=O)[C@H](Cc1c[nH]cn1)NC(=O)[C@H](CCCNC(=N)N)NC(=O)[C@H](CC(C)C)NC(=O)[C@H](Cc1ccccc1)NC(=O)[C@H](CC(=O)O)NC(=O)[C@H](C)NC(=O)[C@H](CC(C)C)NC(=O)[C@H](CCCNC(=N)N)NC(=O)[C@H](CCC(N)=O)NC(=O)[C@@H](NC(=O)[C@H](C)NC(=O)[C@@H]1CSSC[C@H](NC(=O)[C@@H](N)CCCCNC(=O)CC[C@H](NC(=O)CC[C@H](NC(=O)CCCCCCCCCCCCCCCCCCC(=O)O)C(=O)O)C(=O)O)C(=O)N[C@@H](CC(N)=O)C(=O)N[C@@H]([C@@H](C)O)C(=O)N[C@@H](C)C(=O)N[C@@H]([C@@H](C)O)C(=O)N1)[C@@H](C)O)C(=O)N1CCC[C@H]1C(=O)N[C@@H](CO)C(=O)N[C@@H](CO)C(=O)N[C@H](C(=O)N[C@@H](CC(N)=O)C(=O)N[C@H](C(=O)NCC(=O)N[C@@H](CO)C(=O)N[C@@H](CC(=O)O)C(=O)N[C@H](C(=O)N[C@@H](Cc1ccc(O)cc1)C(N)=O)[C@@H](C)O)C(C)C)[C@@H](C)O [Peptide 6] (H-K([γGlu-γGlu-C20 diacid])CNTATCATQRLADFLRHSSPNFGAIPSSTNVGSDTY-NH2; disulfide 2-7) | >45 | 100 | 7.71 | 19.5 | – | – | – | – | – | –
2 | CC[C@H](C)[C@H](NC(=O)[C@H](C)NC(=O)CNC(=O)[C@H](Cc1ccccc1)NC(=O)[C@H](CC(N)=O)NC(=O)[C@@H]1CCCN1C(=O)[C@H](CO)NC(=O)[C@H](CO)NC(=O)[C@H](Cc1c[nH]cn1)NC(=O)[C@H](CCCNC(=N)N)NC(=O)[C@H](CC(C)C)NC(=O)[C@H](Cc1ccccc1)NC(=O)[C@H](CCC(=O)O)NC(=O)[C@H](C)NC(=O)[C@H](CC(C)C)NC(=O)[C@H](CCCNC(=N)N)NC(=O)[C@H](CCC(N)=O)NC(=O)[C@@H](NC(=O)[C@H](C)NC(=O)[C@@H]1CSSC[C@H](NC(=O)[C@@H](N)CCCCNC(=O)CC[C@H](NC(=O)CCCCCCCCCCCCCCCCCCC(=O)O)C(=O)O)C(=O)N[C@@H](CC(N)=O)C(=O)N[C@@H]([C@@H](C)O)C(=O)N[C@@H](C)C(=O)N[C@@H]([C@@H](C)O)C(=O)N1)[C@@H](C)O)C(=O)N1CCC[C@H]1C(=O)N[C@@H](CO)C(=O)N[C@@H](CO)C(=O)N[C@H](C(=O)N[C@@H](CC(N)=O)C(=O)N[C@H](C(=O)NCC(=O)N[C@@H](CO)C(=O)N[C@@H](CCCNC(=N)N)C(=O)N[C@H](C(=O)N[C@@H](Cc1ccc(O)cc1)C(N)=O)[C@@H](C)O)C(C)C)[C@@H](C)O [Peptide 20] (H-K([γGlu-C20 diacid])CNTATCATQRLAEFLRHSSPNFGAIPSSTNVGSRTY-NH2; disulfide 2-7) | – | – | – | – | 7 | 91 | 8.28 | 5.2 | – | –
3 | CC(C)C[C@H](NC(=O)[C@H](CCCNC(=N)N)NC(=O)[C@H](CCC(N)=O)NC(=O)[C@@H](NC(=O)[C@H](C)NC(=O)[C@@H]1CSSC[C@H](NC(=O)[C@@H](N)CCCCNC(=O)CC[C@H](NC(=O)CC[C@H](NC(=O)CCCCCCCCCCCCCCCCCCC(=O)O)C(=O)O)C(=O)O)C(=O)N[C@@H](CC(N)=O)C(=O)N[C@@H]([C@@H](C)O)C(=O)N[C@@H](C)C(=O)N[C@@H]([C@@H](C)O)C(=O)N1)[C@@H](C)O)C(=O)N[C@@H](C)C(=O)N[C@@H](CC(=O)O)C(=O)N[C@@H](Cc1ccccc1)C(=O)N[C@@H](CC(C)C)C(=O)N[C@@H](CCCNC(=N)N)C(=O)N[C@@H](Cc1c[nH]cn1)C(=O)N[C@@H](CO)C(=O)N[C@@H](CO)C(=O)N[C@@H](CC(N)=O)C(=O)N1CCC[C@H]1C(=O)N[C@@H](Cc1ccccc1)C(=O)NCC(=O)N[C@@H](C)C(=O)N1CCC[C@H]1C(=O)N[C@@H](CC(C)C)C(=O)N[C@@H](CO)C(=O)N[C@@H](CO)C(=O)N[C@H](C(=O)N[C@@H](CC(N)=O)C(=O)N[C@H](C(=O)NCC(=O)N[C@@H](CO)C(=O)N[C@@H](CC(=O)O)C(=O)N[C@H](C(=O)N[C@@H](Cc1ccc(O)cc1)C(N)=O)[C@@H](C)O)C(C)C)[C@@H](C)O [Peptide 7] (H-K([γGlu-γGlu-C20 diacid])CNTATCATQRLADFLRHSSNPFGAPLSSTNVGSDTY-NH2; disulfide 2-7) | >45 | 100 | – | – | – | – | 8.86 | – | – | –
4 | CC(C)C[C@H](NC(=O)[C@H](CCCNC(=N)N)NC(=O)[C@H](CCC(N)=O)NC(=O)[C@@H](NC(=O)[C@H](C)NC(=O)[C@@H]1CSSC[C@H](NC(=O)[C@@H](N)CCCCNC(=O)CC[C@H](NC(=O)CC[C@H](NC(=O)CCCCCCCCCCCCCCCCCCC(=O)O)C(=O)O)C(=O)O)C(=O)N[C@@H](CC(N)=O)C(=O)N[C@@H]([C@@H](C)O)C(=O)N[C@@H](C)C(=O)N[C@@H]([C@@H](C)O)C(=O)N1)[C@@H](C)O)C(=O)N[C@@H](C)C(=O)N[C@@H](CC(=O)O)C(=O)N[C@@H](Cc1ccccc1)C(=O)N[C@@H](CC(C)C)C(=O)N[C@@H](CCCNC(=N)N)C(=O)N[C@@H](Cc1c[nH]cn1)C(=O)N[C@@H](CO)C(=O)N[C@@H](CO)C(=O)N1CCC[C@H]1C(=O)N[C@@H](CC(N)=O)C(=O)N[C@@H](Cc1ccccc1)C(=O)NCC(=O)N[C@@H](C)C(=O)N1CCC[C@H]1C(=O)N[C@@H](CC(C)C)C(=O)N[C@@H](CO)C(=O)N[C@@H](CO)C(=O)N[C@H](C(=O)N[C@@H](CC(N)=O)C(=O)N[C@H](C(=O)NCC(=O)N[C@@H](CO)C(=O)N[C@@H](CC(=O)O)C(=O)N[C@H](C(=O)N[C@@H](Cc1ccc(O)cc1)C(N)=O)[C@@H](C)O)C(C)C)[C@@H](C)O [Peptide 5] (H-K([γGlu-γGlu-C20 diacid])CNTATCATQRLADFLRHSSPNFGAPLSSTNVGSDTY-NH2; disulfide 2-7) | 35 | 100 | – | 30.2 | – | – | – | 2.58 | 30.2 | 2.57
